The structures appear in SMILES notation.

From patent US20070148660A1, “Treatment of maladaptive substance use with H-ras antagonists” (The Regents of the University of California, priority 2005, published 2007) come the findings set out here.

In one test the test system is NR2A subunits. To be noted: 100 mM ethanol, 15 min, hippocampal slices. As for the experimental part: (§1) Transverse hippocampal slices ([…]) were prepared from 10- to 12-week-old C57BL/6J mice. Slices were allowed to recover for 90 min in artificial cerebrospinal fluid (aCSF) saturated with 95% O2/5% CO2 containing (in mM): 126 NaCl, 1.2 KCl, 1.2 NaH2PO4, 1.2 MgCl2, 2.4 CaCl2, 18 NaHCO3, and 11 glucose. Following recovery, slices were treated with aCSF (control) or ethanol at room temperature, after which the slices were rinsed in cold aCSF, and used either for cross-linking experiments, for Ras activity assay, or for immunoprecipitation. In experiments using Tat-H-Ras DN or the Tat-peptide, the slices were pretreated with either aCSF (control) or 2 μM Tat-H-Ras DN or Tat-peptide for 2 hrs at room temperature, followed by ethanol treatments.
(§2) Chymotrypsin experiments were performed as described previously (22), with minor modifications. Following recovery, slices were treated with aCSF or 0.5 mg/ml chymotrypsin at 32° C. for 5 min. […] The protein concentration was determined using the BCA assay, followed by SDS-PAGE and Western blot analysis.
(§3) Proteins were separated by SDS-PAGE and blotted onto a nitrocellulose membrane. […] Results were quantified by NIH Image 1.61.

Another test deals with NR2B. To be noted: ethanol, hippocampal slices, data not shown. The method, then: as §1, §2, §3
Test [1] has as its system NR2A-adaptin β2 association. Kind of test: Co-immunoprecipitation of NR2A and adaptin β2, hippocampal slices. Type of test: cell-based, mouse. The following applies: 100 mM ethanol, 15 min. The method, then: as §1
The treated slices were homogenized in ice-cold buffer containing 1% deoxycholate, protease and phosphatase inhibitors and (in mM): 250 sucrose, 20 Tris-HCl (pH 7.5), 2 EDTA and 10 EGTA. 500 μg of the protein was diluted with 1× immunoprecipitation buffer (1% Triton X-100 and (in mM): 150 NaCl, 10 Tris HCl (pH 7.4), 1 EDTA, 1 EGTA and 0.2 sodium orthovanadate) and incubated with 5 μg of the appropriate antibody, followed by an overnight incubation at 4° C. with protein G agarose beads. […]
as §3

A further test deals with Ras. Briefly: Ras activity assay (Raf-1-Ras binding domain GST-agarose), hippocampal slices. Type of test: cell-based, mouse. The following applies: 100 mM ethanol, 15 min, hippocampal slices. As for the experimental part: The treated hippocampal homogenates (250 μg) were incubated with […] of Raf-1-Ras binding domain GST-agarose for 45 min at 4° C. while rotating, as per manufacturer's instructions. […] Results were quantified by NIH Image 1.61.

The subject of another test is NMDAR. Kind of test: NMDAR-mediated fEPSPs, hippocampal CA1 field recording. Type of test: cell-based, mouse. To be noted: bath application of 80 mM ethanol, n=11. As for the experimental part:
Electrophysiological recordings were performed in C57BL/6J mice ranging from P21 to P26. Briefly, mice were anesthetized with halothane and decapitated as per University of California, San Francisco animal care guidelines. Horizontal sections of the hippocampus ([…]) were prepared with a vibratome (Leica, Nussloch, Germany). Slices were placed in a holding chamber and allowed to recover for at least 1 hr before being placed in the recording chamber and superfused with aCSF saturated with 95% O2/5% CO2 and containing (in mM): 119 NaCl, 1.6 KCl, 1.0 NaH2PO4, 1.3 MgCl2 (for EPSCs) or 0.01 MgCl2 (for field excitatory postsynaptic potentials (fEPSPs)), 2.5 CaCl2, 26.2 NaHCO3 and 11 glucose. […]
fEPSPs were recorded using a MultiClamp 700A amplifier (Axon Instruments, Union City, Calif.) with […] patch pipettes filled with 1 M NaCl and 25 mM HEPES. To evoke fEPSPs, Schaffer collateral/commissural afferents in hippocampal CA1 region were stimulated with 0.1 Hz pulses using steel bipolar microelectrodes at intensities adjusted to produce an evoked response that was 50% of the maximal recorded fEPSP for each recording. fEPSPs were filtered at 1 kHz, digitized at 10 kHz and collected on-line using with pClamp 9 (Axon Instrument, Union City, Calif.). […]

For the compound `CCO` [ethanol], the “internalization of the NR2A subunits (chymotrypsin)” value in the test on NR2A subunits is reported as “significantly increased”. Further, the “surface or intracellular levels of NR2B (chymotrypsin)” value in the test on NR2B is “no effects”. Further, in test [1], the “association of adaptin β2 with NR2A and vice-versa” value is listed as “significantly increased”. Also, the “increase of Ras-GTP levels over the control” value in the test on Ras was “at least 2 fold”. In the test on NMDAR, the “inhibition of NMDAR-mediated fEPSPs” value is on record as 47+8%.
